Data as given in patent US6147097A, “Imidazole derivatives as anti-HIV agents” (Shionogi & Co., Ltd., priority 1994, dated 2000).
In brackets after ≈: the same amount, converted by molar mass. Where two headings read alike, the source gives them in different places.

Legend:
MT-4 cells = assay: cytotoxicity in MT-4 cells (MTT, culture medium in place of HIV); format: cell-based; details: human, mt-4 cells, 120 h
Procedure, shortened: (§1)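 Uninfected readout: compound-treated MT-4 cultures, 3.5×10^4 cells/well, received medium in place of virus and were kept 5 days at 37° C. Viability measured by 1 h MTT reduction, solubilized formazan read at 560/690 nm relative to control wells.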

[1] = target: T1, purified recombinant HIV-1 reverse transcriptase (Human immunodeficiency virus type 1 group M subtype B, UniProt P04585); assay: reverse transcriptase inhibition, poly(rA)/(dT) template primer, [3H]dTTP uptake; format: biochemical
T1 construct: purified recombinant HIV-1 reverse transcriptase; made in house; host or cells: Escherichia coli
Procedure, shortened: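 Inhibition reported as percent reduction of [3H]dTTP incorporation relative to solvent control, after 1 h at 37 °C at pH 8.3. Recombinant RT from E. coli, poly(rA) template with oligo(dT) primer, 4 μM unlabeled dTTP as substrate; product collected on DEAE filter mats.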

[2] = cytotoxicity in MT-4 cells (MTT, culture medium in place of HIV); format: cell-based; details: human
Procedure, shortened: as §1

HIV (HTLV-IIIB strain) = assay: microbe, parasite or virus in culture; format: cell-based; details: Human immunodeficiency virus 1, IIIB, MT4, 120 h
Procedure, shortened: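 Protection from virus was read as viable-cell MTT conversion to formazan after 5 days at 37° C. The cultures contained MT-4 cells (3.5×10^4/well), compound dilutions and 60 pfu HIV per well.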

[3] = MT-4 cells, no virus, 37° C., 5 days, MTT, Table 3, read-out: CC50
[4] = MT-4 cells, 60 pfu HIV per well, 37° C., 5 days, MTT, Tables 1 and 2, read-out: EC50

Row | SMILES | EC50 (head of Table 4; CC50 per Test Example 2) (MT-4 cells) [µg/mL] | IC50 [1] [µM] | CC50 at 120 h [2, 3] [µg/mL] | EC50 (HIV (HTLV-IIIB strain); [4]) [µg/mL] | EC50 (HIV (HTLV-IIIB strain)) [µg/mL] | CC50 at 120 h ([2]; mt-4 cells) [µg/mL]
1 | CC(O)Cn1c(CO)nc(C(C)C)c1Sc1cc(Cl)cc(Cl)c1 (stereo not shown) [Compound 141a, 5-(3,5-dichlorophenylthio)-2-hydroxymethyl-1-(2-hydroxypropyl)-4-isopropyl-1H-imidazole] | 12.5 to 25 |  |  |  |  | 
2 | Cc1nc(C(C)C#N)c(Sc2cccc(Cl)c2)n1C (stereo not shown) [Compound I-97, 2-[5-(3-chlorophenylthio)-1,2-dimethyl-1H-imidazol-4-yl]propiononitrile] |  | 25.4 | 10 to 100 (≈ 34.3 to 343 µM) | 0.06 to 0.13 (≈ 0.206 to 0.445 µM) |  | 
3 | CC(C)c1nc(COC(N)=O)n(CF)c1Sc1cc(Cl)cc(Cl)c1 [Compound I-56, 2-carbamoyloxymethyl-5-(3,5-dichlorophenylthio)-1-fluoromethyl-4-isopropyl-1H-imidazole] |  | 2.37 | 10 to 100 (≈ 25.5 to 255 µM) |  | 0.008 (≈ 0.0204 µM) | 
4 | CC(C)c1nc(CCCO)n(CCO)c1Sc1cc(Cl)cc(Cl)c1 [Compound 137d, 3-(5-(3,5-dichlorophenylthio)-1-(2-hydroxyethyl)-4-isopropyl-1H-imidazol-2-yl)-propan-1-ol] |  | 6.68 |  | < 0.008 |  | 6.3 to 12.5 (≈ 16.2 to 32.1 µM)
5 | C=CCn1c(CO)nc(C(C)C)c1Sc1cccc(Cl)c1 [Compound I-17, [1-allyl-5-(3-chlorophenylthio)-4-isopropyl-1H-imidazol-2-yl]methanol] |  | < 2.48 | 6.3 to 12.5 (≈ 19.5 to 38.7 µM) | 0.005 to 0.01 (≈ 0.0155 to 0.031 µM) |  | 
6 | CC(C)c1nc(CN(C)C)n(C)c1Sc1cc(Cl)cc(Cl)c1 [Compound I-78, 5-(3,5-dichlorophenylthio)-2-dimethylaminomethyl-4-isopropyl-1-methyl-1H-imidazole] |  | 129 | 1 to 10 (≈ 2.79 to 27.9 µM) | 1 (≈ 2.79 µM) |  | 
7 | CC(=O)OCCOCc1nc(C(C)C)c(Sc2cc(Cl)cc(Cl)c2)n1C [Compound I-60, 2-{[5-(3,5-dichlorophenylthio)-4-isopropyl-1-methylimidazol-2-yl]methoxy} ethyl acetate] |  | > 240 | 12.5 to 25 | ≥ 0.5 |  | 
8 | CC(C)c1nc(CN)n(C)c1Sc1cccc([N+](=O)[O-])c1 [Compound I-67, 2-aminomethyl-4-isopropyl-1-methyl-5-(3-nitrophenylthio)-1H-imidazole] |  | 17.6 | 12.5 to 25 (≈ 40.8 to 81.6 µM) | 0.13 to 0.25 (≈ 0.424 to 0.816 µM) |  | 
9 | CC(C)c1nc(CO)n(Cc2cccc([N+](=O)[O-])c2)c1Sc1cc(Cl)cc(Cl)c1 [Compound 103b, 5-(3,5-dichlorophenylthio)-2-hydroxymethyl-4-isopropyl-1-(m-nitrobenzyl)-1H-imidazole] |  | 25 |  | 0.008 (≈ 0.0177 µM) |  | 50 (≈ 111 µM)
10 | Cc1nc(C(C)C)c(Sc2cccc(Cl)c2)n1C [Compound I-3, 5-(3-chlorophenylthio)-1,2-dimethyl-4-isopropylimidazole] |  | 3.56 | 12.5 (≈ 44.5 µM) | 0.03 (≈ 0.107 µM) |  | 
11 | CC(C)c1nc(CCO)n(C)c1Sc1cc(Cl)cc(Cl)c1 [Compound I-81a, 2-[5-(3,5-dichlorophenylthio)-4-isopropyl-1-methyl-1H-imidazol-2-yl]ethanol] |  | 0.405 | 12.5 (≈ 36.2 µM) |  | 0.001 (≈ 0.0029 µM) | 
12 | CC(C)c1nc(COC(N)=O)n(C)c1Cc1cc(Cl)cc(Cl)c1 [Compound I-103, 2-carbamoyloxymethyl-5-(3,5-dichlorobenzyl)-4-isopropyl-1-methyl-1H-imidazole] |  | 19.1 | 10 to 100 (≈ 28.1 to 281 µM) |  | 0.5 (≈ 1.4 µM) | 
13 | CC(C)c1nc(CCOCc2ccccc2)n(CCO)c1Sc1cc(Cl)cc(Cl)c1 [Compound 130d, 2-(2-(2-benzyloxyethyl)-5-(3,5-dichlorophenylthio)-4-isopropyl-1H-imidazol-1-yl)ethanol] |  | > 215 |  | 0.5 to 1 (≈ 1.07 to 2.15 µM) |  | 6.3 (≈ 13.5 µM)
14 | CCCCn1c(CO)nc(C(C)C)c1Sc1cc(Cl)cc(Cl)c1 [Compound I-15, [1-n-butyl-5-(3,5-dichlorophenylthio)-4-isopropyl-1H-imidazol-2-yl]methanol] |  | 2.01 | 6.3 to 12.5 (≈ 16.9 to 33.5 µM) | 0.005 to 0.01 (≈ 0.0134 to 0.0268 µM) |  | 
15 | Cc1ncccc1Cn1c(COC(N)=O)nc(C(C)C)c1Sc1cc(Cl)cc(Cl)c1 [Compound I-133, 2-carbamoyloxymethyl-5-(3,5-dichlorophenylthio)-4-isopropyl-1-(2-methylpyridin-3-ylmethyl)-1H-imidazole] |  | 72.2 |  | 0.008 (≈ 0.0172 µM) |  | 12.5 (≈ 26.9 µM)
